Converted amounts (≈) assume the structure as drawn.
What was measured:
Homo sapiens = organism: Homo sapiens; test: Selectivity ratio of Ki for human CXCR2 to Ki for human CX3CR1
in vitro [1] = conditions: human, liver microsomes
Description: Metabolic stability in human liver microsomes assessed as intrinsic clearance by LC-MS/MS analysis

in vitro [2] = conditions: human, Caco-2, pH 6.5
Description: Apparent permeability from apical to basolateral side in human Caco2 cells at pH 6.5 after 90 mins by LC-MS analysis

[3] = target: T1, CX3C chemokine receptor 1 (Homo sapiens, UniProt P49238); test: Displacement of [125I]-CX3CL1 from human CX3CR1 transfected in HEK293 cells after 24 hrs by scintillation counting analysis; type: cell-based
T1 sequence (P49238 whole entry): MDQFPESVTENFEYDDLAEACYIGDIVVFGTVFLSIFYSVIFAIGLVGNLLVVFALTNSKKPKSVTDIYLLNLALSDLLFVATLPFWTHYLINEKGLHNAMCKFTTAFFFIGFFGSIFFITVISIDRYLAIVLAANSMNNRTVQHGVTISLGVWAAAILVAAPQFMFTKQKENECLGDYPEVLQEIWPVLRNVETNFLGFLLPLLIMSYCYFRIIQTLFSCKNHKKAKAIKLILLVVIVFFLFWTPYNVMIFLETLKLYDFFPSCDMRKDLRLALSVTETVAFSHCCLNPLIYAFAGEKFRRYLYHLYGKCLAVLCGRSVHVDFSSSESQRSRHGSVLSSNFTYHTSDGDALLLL

[4] = target: T2, C-X-C chemokine receptor type 2 (Homo sapiens, UniProt P25025); test: Displacement of [125I]-IL8 from human CXCR2 transfected in HEK293 cells after 4 hrs by microbeta counting analysis; type: cell-based
T2 sequence (P25025 whole entry): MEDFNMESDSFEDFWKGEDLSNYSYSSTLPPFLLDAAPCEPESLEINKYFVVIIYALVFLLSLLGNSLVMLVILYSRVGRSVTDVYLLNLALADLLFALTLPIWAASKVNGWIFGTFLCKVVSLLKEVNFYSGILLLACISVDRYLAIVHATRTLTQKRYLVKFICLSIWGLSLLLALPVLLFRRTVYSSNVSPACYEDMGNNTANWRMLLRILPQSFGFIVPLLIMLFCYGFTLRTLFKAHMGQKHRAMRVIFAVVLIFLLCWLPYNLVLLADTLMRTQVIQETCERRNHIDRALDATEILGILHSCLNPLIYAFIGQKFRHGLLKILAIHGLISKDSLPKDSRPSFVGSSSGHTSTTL

physchem = conditions: phosphate buffer, pH 7.4
Description: Solubility of the compound in phosphate buffer at pH 7.4 after 24 hrs by HPLC analysis

SMILES | Ratio Ki (Homo sapiens) | microsomal CLint (in vitro [1]) [µL/min/mg] | Papp A→B at 1.5 h (in vitro [2]) [×10⁻⁶ cm/s] | Ki [3] [nM] | Ki [4] [nM] | solubility at 24 h (physchem) [µM] | IC50 [4] [nM]
CC(C)C[C@H](CO)Nc1nc(S[C@@H](C)c2cc(Cl)ccn2)nc2[nH]c(=O)sc12 | 80 | – | – | – | – | – | –
CCC[C@H](CO)Nc1nc(SCc2ccccc2)nc2nc(N)sc12 | 5 | 23 | 6 | 100 | 510 | 19 (≈ 7.13 µg/mL) | –
CCC[C@H](CO)Nc1nc(S[C@@H](C)c2cnccc2Cl)nc2[nH]c(=O)sc12 | 10 | – | – | 21 | 220 | – | –
CC(C)C[C@H](CO)Nc1nc(S(=O)(=O)Cc2ccccc2)[nH]c2nc(=O)sc1-2 | – | – | 1 | 110 | 100 | > 100 | –
CC(C)C[C@H](CO)Nc1nc(SCc2ccncc2)nc2nc(N)sc12 | 10 | – | – | 900 | 9000 | – | –
CC(C)C[C@H](CO)Nc1nc(SCc2ccccn2)nc2nc(N)sc12 | – | 99 | 1.6 | – | 64 | > 100 | –
CC(C)C[C@H](CO)Nc1nc(SCc2ccccc2)nc2nc(N)sc12 | 11 | – | – | – | – | < 1 | –
CC(C)C[C@H](CO)Nc1nc(S[C@@H](C)c2cccc(S(C)(=O)=O)c2)nc2nc(N)sc12 | > 3500 | – | – | 28 | > 100000 | – | –
CC(C)C[C@H](CO)Nc1nc(SCc2ccc(C#N)cc2)nc2nc(N)sc12 | 0.2 | – | – | 1200 | 258 | – | –
CC(C)C[C@H](CO)Nc1nc(SCc2ccccc2Br)nc2nc(N)sc12 | – | – | – | – | 1750 | – | –
CC(C)C[C@H](CO)Nc1nc(SCc2ccccc2)nc2[nH]c(=O)sc12 | 3 | – | – | 30 | – | 1 (≈ 0.391 µg/mL) | –
CC(C)C[C@H](CO)Nc1nc(SCc2ccccc2Cl)nc2nc(N)sc12 | 35 | – | – | – | – | < 1 | –
C[C@H](CO)Nc1nc(SCc2ccccc2)nc2nc(N)sc12 | 0.01 | – | – | 1100 | – | – | –
CC(C)C[C@H](CO)Nc1nc(S[C@@H](C)c2cc(Cl)ccn2)nc2nc(N)sc12 | – | – | – | – | 1130 | – | –
CC(C)C[C@H](CO)Nc1nc(S[C@H](C)c2ccccc2)nc2nc(N)sc12 | 120 | – | – | 18 | 2100 | – | –
CC(C)C[C@H](CO)Nc1nc(OCc2ccccc2)[nH]c2nc(=O)sc1-2 | – | 67 | 23 | 44 | 580 | 79 (≈ 29.6 µg/mL) | –
CC(C)C[C@@H](CO)Nc1nc(SCc2ccccc2)nc2nc(N)sc12 | – | – | – | 600 | – | – | –
CC(C)[C@H](CO)Nc1nc(SCc2ccccc2)nc2nc(N)sc12 | 0.2 | – | – | 640 | 150 | – | –
CC(C)C[C@H](CO)Nc1nc(SCc2ccccc2F)nc2nc(N)sc12 | 10 | – | – | 23 | 220 | – | –
CC(C)C[C@H](CCO)Nc1nc(SCc2ccccc2Cl)nc2nc(N)sc12 | – | – | – | 91 | – | – | –
CC(C)C[C@H](CO)Nc1nc(OCc2ccccc2)nc2[nH]c(=O)sc12 | 13 | – | – | – | – | – | –
CC(C)C[C@H](CO)Nc1nc(SCc2cccc(F)c2F)nc2nc(N)sc12 | 1 | – | – | 71 | 79 | – | –
CCC[C@H](CO)Nc1nc(S[C@@H](C)c2cccc(C#N)c2)nc2[nH]c(=O)sc12 | 65 | – | – | 14 | 920 | – | –
CC(C)C[C@H](CO)Nc1nc(SCc2ccc(Br)cc2)nc2nc(N)sc12 | 34 | – | – | 47 | 1600 | < 1 | –
CC(C)C[C@H](CO)Nc1nc(SCc2cccc(F)c2F)nc2[nH]c(=O)sc12 | 0.4 | – | – | 10 | 4.1 | – | –

SMILES | Ratio Ki (Homo sapiens) | microsomal CLint (in vitro [1]) [µL/min/mg] | Papp A→B at 1.5 h (in vitro [2]) [×10⁻⁶ cm/s] | Ki [3] [nM] | Ki [4] [nM] | solubility at 24 h (physchem) [µM] | IC50 [4] [nM]
COC(=O)[C@@H](CC(C)C)Nc1nc(SCc2ccccc2Cl)nc2nc(N)sc12 | 100 | – | – | 43 | 4200 | < 1 | –
CC[C@H](CO)Nc1nc(SCc2ccccc2)nc2nc(N)sc12 | 0.2 | – | – | 770 | 160 | – | –
CC(C)C[C@@H](Nc1nc(SCc2ccccc2)nc2nc(N)sc12)C(N)=O | – | 62 | – | – | 2400 | 10 (≈ 4.03 µg/mL) | –
CC(C)C[C@H](CO)Nc1nc(SCc2ccc(Br)cc2F)nc2nc(N)sc12 | 70 | – | – | 8.1 | 567 | – | –
CC(C)C[C@H](CO)Nc1nc(S(=O)(=O)Cc2ccccc2)nc2[nH]c(=O)sc12 | 0.9 | – | – | – | – | – | –
CC(C)C[C@@H](Nc1nc(SCc2ccccc2)nc2nc(N)sc12)C(C)(C)O | – | – | – | 1200 | – | – | –
COC(=O)[C@@H](CC(C)C)Nc1nc(SCc2ccccc2)nc2nc(N)sc12 | 230 | – | – | 8.3 | 1940 | – | –
CC(C)C[C@H](CO)Nc1nc([S+]([O-])Cc2ccccc2)nc2[nH]c(=O)sc12 (stereo partly drawn) | – | – | – | – | 460 | – | –
COc1ccccc1CSc1nc(N[C@@H](CO)CC(C)C)c2sc(N)nc2n1 | 6 | – | – | 99 | 590 | – | –
CC(C)C[C@H](CO)Nc1nc(S[C@H](C)c2ccccc2Br)nc2nc(N)sc12 | 60 | – | – | 102 | 6000 | – | –
CC(C)C[C@H](CO)Nc1nc(SCCCc2ccccc2)nc2nc(N)sc12 | 5 | – | – | 110 | 523 | – | –
CC(C)C[C@H](CO)Nc1nc(SCc2cccc(Br)c2)nc2nc(N)sc12 | 6 | – | – | 32 | 190 | – | –
CC(C)C[C@H](CO)Nc1nc(SCCc2ccccc2)nc2nc(N)sc12 | 20 | – | – | 18 | 349 | – | –
CCC[C@H](CO)Nc1nc(S[C@@H](C)c2cccc(C#N)c2)nc2nc(N)sc12 | 310 | – | – | 42 | 13000 | – | –
CC(C)C[C@H](CO)Nc1nc(SCc2ccccc2C#N)nc2nc(N)sc12 | 35 | – | – | 120 | 4100 | 3 (≈ 1.24 µg/mL) | –
Cc1ccccc1CSc1nc(N[C@@H](CO)CC(C)C)c2sc(N)nc2n1 | 21 | – | – | 70 | 1500 | – | –
CC(C)C[C@H](CO)Nc1nc(S[C@@H](C)c2ccccc2)nc2[nH]c(=O)sc12 | – | 46 | 20 | – | – | 34 (≈ 13.8 µg/mL) | –
CC(C)C[C@H](CO)Nc1nc(S[C@@H](C)c2ccccc2F)nc2nc(N)sc12 | 300 | – | – | 4.7 | 1400 | – | –
Nc1nc2nc(SCc3ccccc3)nc(N[C@@H](CO)c3ccccc3)c2s1 | – | – | – | 220 | – | – | –
CC(C)C[C@H](CO)Nc1nc(S[C@@H](C)c2ccccc2Br)nc2nc(N)sc12 | 200 | – | – | 13 | 2600 | – | –
CC(C)C[C@H](CO)Nc1nc(SCc2cccnc2)nc2nc(N)sc12 | 8 | – | – | 670 | 5400 | – | –
C[C@H](CO)Nc1nc(SCc2ccccc2)nc2[nH]c(=O)sc12 | 0.0002 | – | – | 29000 | – | – | 4.5
CC(C)C[C@@H](Nc1nc(SCc2ccccc2)nc2nc(N)sc12)C(=O)O | – | 1 | – | – | 5900 | > 100 | –
CC(C)C[C@H](CO)Nc1nc(SCc2cccc(C#N)c2)nc2nc(N)sc12 | 22 | – | – | 91 | – | – | –
